In brackets after ≈: the same amount, converted by molar mass. Activity calls are given as the source filed them. The rule behind the calls is not given here.
What was measured:
Escherichia coli [1] = experiment: Antibacterial activity against ESBL(+) producing Escherichia coli ATCC 35218 assessed as bacterial growth inhibition in presence of CAMHB medium by broth microdilution method; type: functional
Escherichia coli [2] = experiment: Antibacterial activity against Escherichia coli ATCC 25922 assessed as bacterial growth inhibition in presence of CAMHB medium by broth microdilution method; type: functional
Acinetobacter baumannii [3] = experiment: Antibacterial activity against Acinetobacter baumannii ATCC 19606 assessed as bacterial growth inhibition in presence of CAMHB medium by broth microdilution method; type: functional
Klebsiella pneumoniae = experiment: Antibacterial activity against Klebsiella pneumoniae ATCC […] assessed as bacterial growth inhibition in presence of CAMHB medium by broth microdilution method; type: functional
Pseudomonas aeruginosa = experiment: Antibacterial activity against Pseudomonas aeruginosa PAO1 assessed as bacterial growth inhibition in presence of CAMHB medium by broth microdilution method; type: functional
[4] = Cytotoxicity against green monkey Vero cells incubated for 48 hrs by CCK-8 assay; type: toxicity, cell-based; details: green monkey (Chlorocebus sabaeus)
[5] = Cytotoxicity against dog MDCK cells incubated for 48 hrs by CCK-8 assay; type: toxicity, cell-based; details: dog (Canis lupus familiaris)
Escherichia coli [6] = experiment: Antibacterial activity against multi-drug resistant Escherichia coli 1 clinical isolate assessed as bacterial growth inhibition in presence of CAMHB medium by broth microdilution method; type: functional
Escherichia coli [7] = experiment: Antibacterial activity against multi-drug resistant Escherichia coli 2 clinical isolate assessed as bacterial growth inhibition in presence of CAMHB medium by broth microdilution method; type: functional
Escherichia coli [8] = experiment: Antibacterial activity against multi-drug resistant Escherichia coli 3 clinical isolate assessed as bacterial growth inhibition in presence of CAMHB medium by broth microdilution method; type: functional
Escherichia coli [9] = experiment: Antibacterial activity against multi-drug resistant Escherichia coli 4 clinical isolate assessed as bacterial growth inhibition in presence of CAMHB medium by broth microdilution method; type: functional
Escherichia coli [10] = experiment: Antibacterial activity against multi-drug resistant Escherichia coli 5 clinical isolate assessed as bacterial growth inhibition in presence of CAMHB medium by broth microdilution method; type: functional
Acinetobacter baumannii [11] = experiment: Antibacterial activity against multi-drug resistant Acinetobacter baumannii 1 clinical isolate assessed as bacterial growth inhibition in presence of CAMHB medium by broth microdilution method; type: functional
Acinetobacter baumannii [12] = experiment: Antibacterial activity against multi-drug resistant Acinetobacter baumannii 2 clinical isolate assessed as bacterial growth inhibition in presence of CAMHB medium by broth microdilution method; type: functional
Acinetobacter baumannii [13] = experiment: Antibacterial activity against multi-drug resistant Acinetobacter baumannii 3 clinical isolate assessed as bacterial growth inhibition in presence of CAMHB medium by broth microdilution method; type: functional
Acinetobacter baumannii [14] = experiment: Antibacterial activity against multi-drug resistant Acinetobacter baumannii 4 clinical isolate assessed as bacterial growth inhibition in presence of CAMHB medium by broth microdilution method; type: functional
Acinetobacter baumannii [15] = experiment: Antibacterial activity against multi-drug resistant Acinetobacter baumannii 5 clinical isolate assessed as bacterial growth inhibition in presence of CAMHB medium by broth microdilution method; type: functional
Escherichia coli [16] = experiment: Antibacterial activity against Escherichia coli ATCC 25922 infected in Galleria mellonella assessed as increase in larvae survival rate measured upto 96 hrs; type: functional, organism-based; details: dose 1.25-10 mg/kg
Escherichia coli [17] = experiment: Antibacterial activity against Escherichia coli ATCC 25922 infected in Galleria mellonella assessed as increase in larvae survival rate at 1.25 mg/kg measured upto 96 hrs relative to control; type: functional
Escherichia coli [18] = experiment: Antibacterial activity against Escherichia coli ATCC 25922 infected in Galleria mellonella assessed as increase in larvae survival rate at 10 mg/kg measured after 6 days post-inoculation relative to control; type: functional; details: ATCC 25922, 144 h, time 6 day
[19] = Inhibition of LptA /LptC (unknown origin) interaction expressed in yeast AH109 assessed as growth inhibition incubated for 48 hrs
Saccharomyces cerevisiae = experiment: Antimicrobial activity against yeast AH109 expressing T/53 assessed as growth inhibition incubated for 48 hrs; type: functional
[20] = Selectivity index, ratio of MIC for antimicrobial activity against yeast AH109 expressing T/53 to MIC for inhibition of LptA /LptC (unknown origin) interaction expressed in yeast AH109
[21] = Binding affinity to His-tagged LptA (unknown origin) assessed as dissociation constant incubated for 60 to 120 s by BLI analysis
Escherichia coli [22] = experiment: Induction of morphological changes in Escherichia coli ATCC 25922 assessed as cell elongation in presence of LB medium measured after 1 to 3 hrs by crystal violet staining based light microscopic analysis; type: functional, organism-based; details: time 1-3 hrs
Escherichia coli [23] = experiment: Induction of morphological changes in Escherichia coli ATCC 25922 assessed as appearance of filamentous cell in presence of LB medium measured after 1 to 3 hrs by crystal violet staining based light microscopic analysis; type: functional, organism-based; details: time 1-3 hrs
Escherichia coli [24] = experiment: Induction of morphological changes in Escherichia coli ATCC 25922 assessed as appearance of incomplete outer membrane in presence of LB medium incubated for 12 hrs by transmission electron microscopic analysis; type: functional, organism-based
Escherichia coli [25] = experiment: Induction of outer membrane damage in Escherichia coli ATCC 25922 assessed as increase in EtBr fluorescence intensity in presence of LB medium incubated for 12 hrs by fluorescence plate-reader analysis; type: functional, organism-based

| SMILES | MIC (Escherichia coli [1]) [µg/mL] | MIC (Escherichia coli [2]) [µg/mL] | MIC (Acinetobacter baumannii [3]) [µg/mL] | MIC (Klebsiella pneumoniae) [µg/mL] | MIC (Pseudomonas aeruginosa) [µg/mL] | IC50 at 48 h [4] [µg/mL] | IC50 at 48 h [5] [µg/mL] | MIC (Escherichia coli [6]) [µg/mL] | MIC (Escherichia coli [7]) [µg/mL] | MIC (Escherichia coli [8]) [µg/mL] | MIC (Escherichia coli [9]) [µg/mL] | MIC (Escherichia coli [10]) [µg/mL] | MIC (Acinetobacter baumannii [11]) [µg/mL] | MIC (Acinetobacter baumannii [12]) [µg/mL] | MIC (Acinetobacter baumannii [13]) [µg/mL] | MIC (Acinetobacter baumannii [14]) [µg/mL] | MIC (Acinetobacter baumannii [15]) [µg/mL] | MIC [19] [µg/mL] | MIC (Saccharomyces cerevisiae) [µg/mL] | Selectivity Index [20] | also measured |
| --- | --- | --- | --- | --- | --- | --- | --- | --- | --- | --- | --- | --- | --- | --- | --- | --- | --- | --- | --- | --- | --- |
| Fc1cc2c(c3ncccc13)OCN(Cc1ccc(Cl)cc1)C2 | 25 | 6.25 | 6.25 | 100 | 50 | > 50 | 35.6 (≈ 108 µM) | 50 | 50 | 50 | 50 | 50 | 12.5 | 25 | 12.5 | 3.12 | 25 | – | – | – | – |
| Clc1cc2c(c3ncccc13)OCN(CCCc1ccccc1)C2 | 25 | 6.25 | 3.12 | 100 | 50 | > 50 | 43.8 (≈ 129 µM) | 50 | 50 | 50 | 50 | 50 | 6.25 | 12.5 | 12.5 | 12.5 | 6.25 | 6.25 (≈ 18.4 µM) | 25 (≈ 73.8 µM) | 4 | Activity (Escherichia coli [16]): Dose-dependent-effect; survival at 1.25 mg/kg (Escherichia coli [17]): 60%; survival at 10 mg/kg (Escherichia coli [18]): 70%; Kd [21]: 32.2 nM; Activity (Escherichia coli [22]): Active; Activity (Escherichia coli [23]): Active; Activity (Escherichia coli [24]): Active; Activity (Escherichia coli [25]): Dose-dependent-effect |
| Clc1ccc(CN2COc3c(cc(Cl)c4cccnc34)C2)cc1 | 25 | 6.25 | 3.12 | 50 | 25 | > 50 | 47.8 (≈ 138 µM) | 50 | 50 | 50 | 50 | 50 | 12.5 | 6.25 | 12.5 | 12.5 | 6.25 | 12.5 (≈ 36.2 µM) | 25 (≈ 72.4 µM) | 2 | Activity (Escherichia coli [16]): Dose-dependent-effect; survival at 1.25 mg/kg (Escherichia coli [17]): 50%; survival at 10 mg/kg (Escherichia coli [18]): 80%; Kd [21]: 54.4 nM; Activity (Escherichia coli [22]): Active; Activity (Escherichia coli [23]): Active; Activity (Escherichia coli [24]): Active; Activity (Escherichia coli [25]): Dose-dependent-effect |
| Fc1cc2c(c3ncccc13)OCN(CCc1cccc(Br)c1)C2 | 25 | 6.25 | 6.25 | 50 | 100 | > 50 | 32 (≈ 82.5 µM) | 50 | 50 | 50 | 50 | 50 | 250 | 25 | 25 | 12.5 | 12.5 | – | – | – | – |
| Fc1cc2c(c3ncccc13)OCN(CCc1ccc(Br)cc1)C2 | 25 | 6.25 | 3.12 | 100 | 100 | > 50 | 44.9 (≈ 116 µM) | 50 | 50 | 50 | 50 | 50 | 12.5 | 3.12 | 12.5 | 25 | 6.25 | – | – | – | – |
| Fc1ccc(CN2COc3c(cc(Cl)c4cccnc34)C2)c(F)c1 | > 100 | 6.25 | 3.12 | 50 | 100 | > 50 | 34.2 (≈ 98.6 µM) | 50 | 50 | 50 | 50 | 50 | 50 | 25 | 50 | 25 | 50 | – | – | – | – |
| Clc1cc2c(c3ncccc13)OCN(CCc1ccccc1)C2 | > 100 | 6.25 | 3.12 | 100 | 50 | 14.3 (≈ 44.2 µM) | 7.24 (≈ 22.3 µM) | 50 | 50 | 50 | 50 | 50 | 100 | 100 | 100 | 100 | 100 | 12.5 (≈ 38.5 µM) | 25 (≈ 77 µM) | 2 | Kd [21]: 1.49 nM |
| Fc1cc2c(c3ncccc13)OCN(CCc1ccc(Cl)cc1)C2 | 25 | 6.25 | 25 | 50 | 100 | > 50 | 29.2 (≈ 85.2 µM) | 50 | 50 | 50 | 50 | 50 | 100 | 50 | 100 | 100 | 100 | – | – | – | – |
| Fc1cc2c(c3ncccc13)OCN(CCc1cccc(Cl)c1)C2 | 25 | 6.25 | 6.25 | 50 | 100 | > 50 | 42.3 (≈ 123 µM) | 50 | 50 | 50 | 50 | 50 | 6.25 | 25 | 25 | 12.5 | 25 | – | – | – | – |
